Measured values reported in ChEMBL document CHEMBL3217731 (Medchemcomm, 2012).

What was measured:
Set-up in all cases: dose 2.5 mg/kg, route intraperitoneal
Serum [1] = experiment: Drug uptake in C57BL/6J mouse serum at 2.5 mg/kg, ip measured at 10 to 60 mins by CE-UV analysis; assay type: ADME, organism-based; details: in vivo
Brain = experiment: Drug uptake in C57BL/6J mouse brain at 2.5 mg/kg, ip measured at 4 hrs by CE-UV analysis; assay type: ADME, organism-based; details: in vivo
[2] = Drug uptake in C57BL/6J mouse eye at 2.5 mg/kg, ip measured at 10 hrs by CE-UV analysis; assay type: ADME, organism-based; details: in vivo
Serum [3] = experiment: Half life in C57BL/6J mouse serum at 2.5 mg/kg, ip; assay type: ADME, organism-based; details: in vivo
[4] = Drug uptake in C57BL/6J mouse CSF at 2.5 mg/kg, ip measured at 4 to 10 hrs by CE-UV analysis; assay type: ADME, organism-based, Cerebrospinal fluid; details: in vivo
Serum [5] = experiment: AUC in C57BL/6J mouse serum at 2.5 mg/kg, ip by CE-UV analysis; assay type: ADME, organism-based, Plasma; details: in vivo
[6] = AUC in C57BL/6J mouse CSF at 2.5 mg/kg, ip by CE-UV analysis; assay type: ADME, organism-based

CN1C(=O)N[C@H]2[C@@H]3NC(=O)c4ccc(Br)n4[C@@H]3C[C@]21O [AGELASTATIN A]
Drug uptake (Serum [1]): Active
Drug uptake (Brain): Active
Drug uptake [2]: Active
t1/2 (Serum [3]): 12 h
Drug uptake [4]: Active
AUC (Serum [5]): 33.8 µM·h
AUC [6]: 3.41 µM·h
